Laboratory results published in the NIST ThermoML archive (doi:10.1016/j.jct.2014.07.018).

Assay: molar heat capacity at constant pressure
Settings: 101.33 kPa, Vacuum adiabatic calorimetry

CCC[n+]1ccn(C)c1.[Br-] [1-methyl-3-propylimidazolium bromide]
molar heat capacity at constant pressure [J/K/mol]
Settings | Crystal 2 | Glass
5 K | 0.294 | 1
5.52 K | 0.401 | –
5.87 K | 0.492 | –
6.21 K | 0.596 | –
6.59 K | 0.729 | –
6.61 K | – | 2.26
6.94 K | – | 2.56
6.97 K | 0.883 | –
7.33 K | – | 2.953
7.35 K | 1.057 | –
7.73 K | 1.253 | –
7.74 K | – | 3.376
8.12 K | 1.472 | –
8.14 K | – | 3.817
8.51 K | 1.709 | –
8.55 K | – | 4.303
8.89 K | 1.969 | –
8.96 K | – | 4.799
9.28 K | 2.25 | –
9.37 K | – | 5.312
9.68 K | 2.56 | –
9.78 K | – | 5.854
10 K | 2.83 | 6.16
10.07 K | 2.896 | –
10.19 K | – | 6.42
10.57 K | 3.349 | –
10.71 K | – | 7.156
11.17 K | 3.934 | –
11.34 K | – | 8.069
11.78 K | 4.563 | –
11.96 K | – | 9.014
12.39 K | 5.251 | –
12.59 K | – | 10.01
12.76 K | – | 10.27
13 K | 5.972 | –
13.23 K | – | 11.02
13.27 K | – | 11.09
13.62 K | 6.746 | –
13.86 K | – | 12.06
13.9 K | – | 12.12
14.24 K | 7.548 | –
14.5 K | – | 13.11
14.53 K | – | 13.18
14.85 K | 8.382 | –
15 K | 8.58 | 13.96
15.17 K | – | 14.27
15.58 K | 9.404 | –
15.96 K | – | 15.61
16.42 K | 10.63 | –
16.9 K | – | 17.24
17.26 K | 11.9 | –
17.83 K | – | 18.9
18.09 K | 13.21 | –
18.77 K | – | 20.57
18.93 K | 14.56 | –
19.7 K | – | 22.25
19.77 K | 15.94 | –
20 K | 16.31 | 22.8
20.91 K | 17.83 | –
20.95 K | – | 24.53
22.33 K | 20.27 | –
22.51 K | – | 27.36
23.77 K | 22.77 | –
24.09 K | – | 30.19
25 K | 24.9 | 31.8
25.2 K | 25.25 | –
25.66 K | – | 32.96
26.63 K | 27.75 | –
27.23 K | – | 35.71
28.07 K | 30.25 | –
28.81 K | – | 38.42
29.52 K | 32.71 | –
30 K | 33.56 | 40.46
30.4 K | – | 41.1
31.17 K | 35.56 | –
32.13 K | – | 43.97
33.03 K | 38.66 | –
34.01 K | – | 46.95
34.89 K | 41.68 | –
35 K | 41.84 | 48.45
35.9 K | – | 49.88
36.76 K | 44.57 | –
37.79 K | – | 52.63
38.63 K | 47.38 | –
39.67 K | – | 55.27
40 K | 49.44 | 55.78
40.49 K | 50.15 | –
41.76 K | – | 58.17
42.5 K | 53 | –
44.05 K | – | 61.22
44.67 K | 55.99 | –
45 K | 56.45 | 62.48
46.42 K | – | 64.28
46.85 K | 58.9 | –
48.69 K | – | 67.11
49.03 K | 61.73 | –
50 K | 62.88 | 68.62
50.77 K | – | 69.55
51.21 K | 64.4 | –
52.86 K | – | 71.87
53.39 K | 66.92 | –
54.95 K | – | 74.14
55.57 K | 69.38 | –
57.04 K | – | 76.42
57.75 K | 71.78 | –
59.13 K | – | 78.63
59.93 K | 74.14 | –
60 K | 74.22 | 79.52
61.23 K | – | 80.83
62.13 K | 76.42 | –
63.32 K | – | 82.92
64.33 K | 78.63 | –
65.42 K | – | 84.99
66.53 K | 80.71 | –
67.53 K | – | 86.98
68.72 K | 82.68 | –
69.62 K | – | 88.87
70 K | 83.84 | 89.28
70.92 K | 84.56 | –
